Experimental data taken from patent publication US4382943A, “Anti-allergic aryl ether derivatives” (Boehringer Mannheim GmbH, priority 1980, dated 1983).
Structures can show the parent of a compound that is named as a salt.

System: antigen induced bronchospasm in passively sensitized guinea pigs
Assay: Inhibition of antigen induced bronchospasm (Br Sp) in passively sensitized guinea pigs
Type: in vivo, guinea pig
Conditions: Cavia porcellus, po, 0.05 h, 60 min before antigen, 3 min after antigen; for inhibition in vivo at 0.38 mg/kg: 0.38 mg/kg p.o.; for inhibition in vivo at 0.75 mg/kg: 0.75 mg/kg p.o.
Method: Specifically, tests were run as follows: […] Equal volumes of saline solution of antigen (5 mg/ml) and Freund's complete adjuvant were emulsified and 0.15 ml injected into each hind foot of adult male guinea pigs (Davies and Johnson: Int. Arch. Allergy 41,648-654 (1971)). The animals were bled and the pooled serum stored at -20° C. Passive Sensitization Injections of 0.5 ml antiserum of 1:50 dilution were given i.v. 24-48 h before challenge. Guinea pigs were anaesthetized with phenobarbital sodium (40 mg/kg i.p.). Cannulae were tied into the trachea and the jugular vein and the lung inflated with a pump at a rate of 72 strokes/min and a constant stroke volume of 6-8 ml. Bronchospasm, provoked by injecting ovalbumin i.v. was measured as described by Konzett, H. and R. Rossler, "Versuchsanordnung su Untersuchungen an der Bronchialmuskulatur" Naunyn-Schmiedebergs, Arch. exp. Path. Pharmak. 195, 71-74 (1940) and modified by Collier, […] and M. Schachter: "The Bronchoconstrictor Action of Bradykinin in the Guinea-Pig" Brit. J. Pharmacol. 15, 290 (1960). The drugs were applied per os 60 minutes before the antigen. For calculation the following formula was used: % Bronchospasm (b-a)/(m-a)×100 b=Bronchospasm after antigen injection, measured in mm from tracing m=maximum height of tracing in mm with arm of the tracheacannula clamped a=pre injection height of the tracing in mm % inhibition of bronchospasm was calculated by comparing control groups with drug pretreated groups 3 minutes after antigen application.

O=C(NC1CCN(CCCOc2ccc3c4c(c(=O)oc3c2)CCC4)CC1)c1ccccc1 [Example 1, 7-[3-(4-Benzamidopiperidino)-propoxy]-2,3-dihydrocyclopenta[c][1]benzopyran-4(1H)one hydrochloride]
inhibition in vivo at 0.38 mg/kg: 47%

O=C(NC1CCN(CCCOc2ccc3c4c(c(=O)oc3c2)CCC4)CC1)c1ccc(F)cc1 [Example 2, 2,3-dihydro-7-{3-[4-(4-fluorobenzamido)-piperidino]-propoxy}-cyclopenta[c][1]benzopyran-4(1H)-one hydrochloride]
inhibition in vivo at 0.38 mg/kg: 67%

Cc1ccccc1C(=O)NC1CCN(CCCOc2ccc3c4c(c(=O)oc3c2)CCC4)CC1 [Example 4, 2,3-dihydro-7-{3-[4-(2-methylbenzamido)-piperidino]-propoxy}-cyclopenta[c][1]benzopyran-4(1H)-one]
inhibition in vivo at 0.75 mg/kg: 76%

O=C(Cc1ccccc1)NC1CCN(CCCOc2ccc3c4c(c(=O)oc3c2)CCC4)CC1 [Example 8, 2,3-dihydro-7-[3-(4-phenylacetamido-piperidino)-propoxy]-cyclopenta-[c][1]benzopyran-4(1H)-one]
inhibition in vivo at 0.75 mg/kg: 70%

CC(=O)c1c(OCCCN2CCC(NC(=O)c3ccccc3)CC2)ccc2c3c(c(=O)oc12)CCC3 [Example 14, 6-acetyl-7-[3-(4-benzamido-piperidino)-propoxy]-2,3-dihydro-cyclopenta[c][1]benzopyran-4(1H)-one]
inhibition in vivo at 0.38 mg/kg: 79%

O=C(NC1CCN(CCCOc2ccc3c4c(c(=O)oc3c2)CCCC4)CC1)c1ccc(F)cc1 [Example 17, 3-{3-[4-(4-fluorobenzamido)-piperidino]-propoxy}-7,8,9,10-tetrahydro-6H--dibenzo[b,d]pyran-6-one hydrochloride]
inhibition in vivo at 0.38 mg/kg: 58%

COc1ccc(C(=O)NC2CCN(CCCOc3ccc4c5c(c(=O)oc4c3)CCCC5)CC2)cc1 [Example 18, 3-{3-[4-(4-methoxybenzamido)-piperidino]-propoxy}-7,8,9,10-tetrahydro-6H--dibenzo[b,d]-pyran-6-one]
inhibition in vivo at 0.38 mg/kg: 35% | inhibition in vivo at 0.75 mg/kg: 87%

Cc1ccccc1C(=O)NC1CCN(CCCOc2ccc3c4c(c(=O)oc3c2)CCCC4)CC1 [Example 21, 3-{3-[4-(2-methyl-benzamido)-piperidino]-propoxy}-7,8,9,10-tetrahydro-6H--dibenzo[b,d]pyran-6-one]
inhibition in vivo at 0.38 mg/kg: 51% | inhibition in vivo at 0.75 mg/kg: 78%

CC(C)(C)NCC(O)c1cc(O)cc(O)c1 (stereo not drawn) [Terbutalin, reference compound]
inhibition in vivo at 0.1 mg/kg (0.1 mg/kg p.o.): 12% | inhibition in vivo at 1 mg/kg (1.0 mg/kg p.o.): 52%
